Laboratory results as given in PMC5046141, “Discovery of Isoquinolinoquinazolinones as a Novel Class of Potent PPARγ Antagonists with Anti-adipogenic Effects” (Scientific Reports, 2016).

Columns and labels:
3T3-L1 preadipocytes = test: Oil Red O staining assay of adipocyte differentiation; format: cell-based, mouse; conditions: for inhibition at 25 µM: Mus musculus, 3T3-L1, relative absorbance from Oil Red O staining at 25 μM, read-out: Inhibitory activity (%) on adipocyte differentiation
Procedure: The GW9662-mediated inhibition of PPARγ was confirmed using an Oil Red O staining assay to measure adipocyte differentiation. To investigate whether the novel compounds could inhibit adipocyte differentiation, 3T3-L1 preadipocytes were incubated with differentiation medium (MDI; insulin, dexamethasone, and isobutyl methyl xanthine) in the presence of increasing concentrations of isoquinolinoquinazolinones. Adipogenesis was analyzed using Oil Red O staining after treatment with the compounds.
The mouse preadipocyte cell line 3T3-L1 was maintained at 37 °C in humidified air with 5% CO2. 3T3-L1 cells were cultured in Dulbecco’s modified Eagle medium (DMEM; Life Technologies) supplemented with 10% bovine serum (BS; Gibco Invitrogen, Carlsbad, California, USA) as growth medium. For adipocyte differentiation, cells were cultured for 2 days to full confluence in a 24-well plate and the growth medium was then replaced (day 0) with DMEM supplemented with 10% fetal bovine serum (FBS, Gibco Invitrogen, Carlsbad, California, USA), 5 μg/mL insulin (Sigma, St. Louis, Missouri, USA), 0.5 mM 3-isobutyl-1-methylxanthine (Sigma), and 1 μM dexamethasone (Sigma). After 48 h, the differentiation medium was replaced (day 2) with DMEM + 10% FBS containing 5 μg/mL insulin, and the cells were allowed to accumulate lipid droplets until experimental use.
The accumulation of lipids signifying the formation of adipocytes was observed by staining the differentiated cells with Oil Red O. Following differentiation, cells were washed twice with phosphate-buffered saline (PBS), fixed with 10% formalin for 60 min. Oil Red O stock solution (0.5%) was prepared in isopropanol and filtered in cellulose nitrate filters. Cells were stained with Oil Red O diluted 6:4 in water for 1 h at room temperature. Excess Oil Red O dye was washed off twice with distilled water and then dried. The stained lipid droplets within cells were visualized using an optical microscope and photographed with a digital camera at 100× magnification.

PPARγ2 = target: T1, PPARγ2 (Mus musculus, UniProt P37238); test: PPRE-Luc luciferase reporter assay of PPARγ2-induced transcriptional activity in 3T3-L1 cells; format: cell-based; conditions: for IC50: 3T3-L1 cotransfected with PPARγ2 and PPRE-Luc, read-out: IC50 with respect to PPARγ2-induced transcriptional activity; for inhibition of PPARγ2 transfection (transcriptional activity), with rosiglitazone stimulation / inhibition of PPARγ2 transfection (transcriptional activity), compound alone: 5 μM; for inhibition of PPARγ2 transfection (transcriptional activity), compound alone: without rosiglitazone
T1 construct: expressed in transfected cells; host or cells: 3T3-L1 (mouse preadipocytes), pCS4 CMV vector
T1 sequence (P37238 1-505): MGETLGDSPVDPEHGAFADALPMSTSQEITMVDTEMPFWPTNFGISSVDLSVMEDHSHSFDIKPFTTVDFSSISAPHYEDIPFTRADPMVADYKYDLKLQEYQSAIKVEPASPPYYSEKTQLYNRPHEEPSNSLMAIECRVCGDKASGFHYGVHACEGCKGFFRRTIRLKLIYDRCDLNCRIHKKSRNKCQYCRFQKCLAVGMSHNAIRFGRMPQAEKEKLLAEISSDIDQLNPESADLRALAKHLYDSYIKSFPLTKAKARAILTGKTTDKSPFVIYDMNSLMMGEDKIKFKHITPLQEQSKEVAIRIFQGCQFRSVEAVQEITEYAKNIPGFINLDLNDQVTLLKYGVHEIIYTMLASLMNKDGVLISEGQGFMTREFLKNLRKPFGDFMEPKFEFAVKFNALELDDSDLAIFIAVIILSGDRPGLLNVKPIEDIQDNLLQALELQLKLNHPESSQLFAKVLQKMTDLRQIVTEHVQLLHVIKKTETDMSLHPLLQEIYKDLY
Procedure: To analyze whether isoquinolinoquinazolinones inhibit the transactivation of PPARγ, 3T3-L1 cells were cotransfected with full-length PPARγ2 expression vector with a peroxisome proliferator response element (PPRE)-driven luciferase reporter gene (PPRE-Luc) that has been reported to respond to PPARγ[23][24]. […] Titration curves were generated using Graph Pad Prism®, and the IC50 value of each compound with respect to PPARγ2-induced transcriptional activity was determined.
The transcription activity was determined in 3T3-L1 cells transiently co-transfected with PPRE-driven luciferase reporter gene (PPRE-Luc) and PPARγ2 expression vector. […] After 24 h of transfection, the cells were cultured with indicated combination for 12 h. Luciferase activity was measured after 36 h.
For plasmids expressing PPARγ2, full length PPARγ2 (mouse, 1518 bp: NCBI Reference Sequence: NP_035276.2) was subcloned into CMV promoter-derived mammalian expression vector (pCS4). Plasmids for C285G, R288G mutant PPARγ2 were generated by PCR-based site-directed mutagenesis and also subcloned into CMV promoter-derived mammalian expression vector (pCS4).
3T3-L1 cells were transfected for indicated combinations of expression plasmids along with a luciferase reporter plasmid (PPRE-Luc). PPRE-Luc contains the consensus PPAR responsive element (PPRE). pCMV-β-gal was co-transfected for normalization of transfection efficiency. 24 h after transfection, cells were treated with indicated compounds for 12 h. Luciferase activities were measured using a luciferase reporter assay kit (Promega, Madison, WI, USA). Experiments were performed in triplicate and repeated at least three times.

| IC50 (PPARγ2) [µM] | inhibition of PPARγ2 transfection (transcriptional activity), with rosiglitazone stimulation (PPARγ2) [%] | inhibition of PPARγ2 transfection (transcriptional activity), compound alone (PPARγ2) [%] | SMILES | inhibition at 25 µM (3T3-L1 preadipocytes) [%] | Inhibitory activity (%) on adipocyte differentiation (3T3-L1 preadipocytes; relative absorbance from Oil Red O staining at 25 μM, 25 µM) [%] |
| --- | --- | --- | --- | --- | --- |
| 5.02 | – | – | COc1cc2cc3n(c(=O)c2cc1OC)CNc1ccc(Cl)cc1-3 [Compound 8n, 2-Chloro-10,11-dimethoxy-5H-isoquinolino[2,3-c]quinazolin-8(6H)-one] | 71.5 | – |
| 2.43 | 88 | 82 | COc1cc2cc3n(c(=O)c2cc1OC)CNc1cc(Cl)ccc1-3 [Compound 8o, 3-Chloro-10,11-dimethoxy-5H-isoquinolino[2,3-c]quinazolin-8(6H)-one] | 82.9 | 82.4 |
| 4.47 | 48 | 46 | O=C(Nc1ccccc1)c1cc([N+](=O)[O-])ccc1Cl [GW9662, reference compound] | 51.4 | – |
